The values below come from patent US20170270277A1, “METHOD FOR SUPERVISING CONSUMPTION OF A MEDICAL FOOD FOR PREVENTION AND/OR MANAGEMENT OF A DISEASE OR CONDITION” (Photonz Corporation Ltd., priority 2012, published 2017).

The nature of this test: Laboratory test of the patient's serum lipids after consumption of the medical food, change from baseline (Example 4). Format: in vivo. The conditions noted are these: 'one or more of'. The text has this:
“Blood data” as used herein includes levels of cholesterol, diglycerides and triglycerides amongst other parameters described herein. Blood data parameters can be measured in accordance with any clinically acceptable methodology. For example, triglycerides, total cholesterol, HDL-C and fasting blood sugar can be sampled from serum and analyzed using standard photometry techniques. VLDL-TG, LDL-C and VLDL-C can be calculated or determined using serum lipoprotein fractionation by preparative ultracentrifugation and subsequent quantitative analysis by refractometry or by analytic ultracentrifugal methodology. Apo AI, Apo B and hsCRP can be determined from serum using standard nephelometry techniques. Lipoprotein (a) can be determined from serum using standard turbidimetric immunoassay techniques. LDL particle number and particle size can be determined using nuclear magnetic resonance (NMR) spectrometry. Remnants lipoproteins and LDL-phospholipase A2 can be determined from EDTA plasma or serum and serum, respectively, using enzymatic immunoseparation techniques. Oxidized LDL, intercellular adhesion molecule-1 and interleukin-6 levels can be determined from serum using standard enzyme immunoassay techniques. These techniques are described in detail in standard textbooks, for example Tietz Fundamentals of Clinical Chemistry, 6th Ed. (Burtis, Ashwood and Borter Eds.), WB Saunders Company. In one embodiment, subjects fast for up to 12 hours prior to blood sample collection, for example about 10 hours.
This is a further example of one particular embodiment of practicing the invention. The results presented in this example are expected to be generated.
A patient is concerned about maintaining good cardiovascular health and advises a medical professional of this desire. The patient may be risk of developing or be diagnosed of having mixed dyslipidemia, hyperlipidemia and hypertriglyceridemia.
The medical professional sets up a laboratory in accordance with clinically acceptable methodologies to determine the patient's serum lipids including triglycerides, total cholesterol, HDL cholesterol, LDL cholesterol and fasting blood sugar. The patient may have one or more of: a baseline triglyceride level of about 300 mg/dl to about 1500 mg/dl; baseline non-HDL-C value of about 200 mg/dl to about 400 mg/dl; baseline total cholesterol value of about 250 mg/dl to about 400 mg/dl; baseline vLDL-C value of about 140 mg/dl to about 200 mg/dl; baseline HDL-C value of about 10 to about 60 mg/dl; and/or baseline LDL-C value of about 50 to about 300 mg/dl.
Additional patient registration data including age, sex, weight, relative level of fitness and health, history of illness, family history of illness, and current prescribed pharmaceutical medications and medical foods and dosages, are also accumulated as a data set on a back end computer. The medical professional queries the backend computer about the patient's laboratory data and lifestyle metrics and this back end computer calculates the dose of the EPA-ethyl ester to be provided to the patient as a medical food for a certain period of time based on the analyzed metrics in order for that patient's serum lipids to be returned to normal levels with a low risk of cardiovascular disease. […]
After consumption of the medical food for the specified period of time, the patient receives another laboratory test of their serum lipids and the data is analyzed for changes from the original baseline on the back end computer. […]

Where [1] appears, read: same patient and medical food dosing.

Take `CC/C=C\C/C=C\C/C=C\C/C=C\C/C=C\CCCC(=O)OCC` [EPA-ethyl ester, eicosapentaenoyl-ethyl ester]: under “patient at risk of or with mixed dyslipidemia, hyperlipidemia, hypertriglyceridemia, 1 to 4 g of at least 60% pure EPA-ethyl ester 1 to 4 times per day”, the “triglyceride levels compared to baseline” value is “reduced”. In addition, under setting [1], the “Apo B levels compared to baseline” value is “reduced”, the “HDL-C levels compared to baseline” value was “increased”, the “non-HDL-C levels compared to baseline” value is “a reduction” and the “vLDL levels compared to baseline” value is given as “a reduction”.
